Experimental data reported in patent publication US11260049B2, “TRPV4 antagonists” (GlaxoSmithKline Intellectual Property (No. 2) Limited, priority 2016, dated 2022).

Biological target: human TRPV4 (Homo sapiens (Human), UniProt Q9HBA0)
Assay: FLIPR assay for hTRPV4 expressed in BHK cells
Format: cell-based
Conditions: inhibition of Agonist Compound (EC80)-induced calcium signal; BHK/AC9 cells expressing human TRPV4; read-out: IC50
Method in brief: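 BHK/AC9 cells transduced with BacMam human TRPV4 (MOI 78), 15,000 cells/well, cultured 24 h at 37 °C. Loaded with 2 μM Fluo-4 AM and 500 μM Brilliant Black in HBSS for 1–1.5 h at room temperature in the dark. Intracellular calcium influx monitored by fluorescence.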

Chain of human TRPV4 (Q9HBA0 whole entry): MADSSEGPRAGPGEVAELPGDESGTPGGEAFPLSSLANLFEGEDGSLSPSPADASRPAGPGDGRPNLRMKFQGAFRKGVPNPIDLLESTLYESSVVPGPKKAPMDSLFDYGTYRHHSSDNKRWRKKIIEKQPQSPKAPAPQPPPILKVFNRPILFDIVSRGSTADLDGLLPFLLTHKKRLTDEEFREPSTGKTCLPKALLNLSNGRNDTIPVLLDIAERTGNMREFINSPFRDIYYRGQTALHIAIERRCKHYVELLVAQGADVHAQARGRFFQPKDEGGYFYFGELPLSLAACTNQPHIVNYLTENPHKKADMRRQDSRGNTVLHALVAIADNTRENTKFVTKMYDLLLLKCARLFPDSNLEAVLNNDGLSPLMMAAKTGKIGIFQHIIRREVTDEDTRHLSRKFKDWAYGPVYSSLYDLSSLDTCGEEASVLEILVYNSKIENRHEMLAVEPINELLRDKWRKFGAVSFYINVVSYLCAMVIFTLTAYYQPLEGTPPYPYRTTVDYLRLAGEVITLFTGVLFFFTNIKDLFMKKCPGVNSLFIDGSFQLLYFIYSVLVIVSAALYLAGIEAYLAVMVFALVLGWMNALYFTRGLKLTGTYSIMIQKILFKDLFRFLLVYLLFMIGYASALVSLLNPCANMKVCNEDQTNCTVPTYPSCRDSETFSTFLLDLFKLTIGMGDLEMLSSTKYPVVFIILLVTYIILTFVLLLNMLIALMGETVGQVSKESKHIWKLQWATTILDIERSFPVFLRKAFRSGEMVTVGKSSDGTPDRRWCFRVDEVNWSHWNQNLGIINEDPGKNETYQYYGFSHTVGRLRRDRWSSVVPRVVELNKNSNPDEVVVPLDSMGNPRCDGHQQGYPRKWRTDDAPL

Structure (SMILES) | IC50 [nM]
O=S(=O)(c1ccc(Cl)cc1)[C@H]1CN(S(=O)(=O)c2ccc(C(F)(F)F)cc2Cl)C[C@@]1(O)CO [Example 97, (3R,4S)-1-((2-chloro-4-(trifluoromethyl)phenyl)sulfonyl)-4-((4-chlorophenyl)sulfonyl)-3-(hydroxymethyl)pyrrolidin-3-ol] | 10 to 100
O=S(=O)(c1ccc(Cl)c(F)c1)[C@H]1CN(S(=O)(=O)c2ccc(C(F)(F)F)cc2Cl)C[C@@]1(O)CO [Example 98, (3R,4S)-4-((4-chloro-3-fluorophenyl)sulfonyl)-1-((2-chloro-4-(trifluoromethyl)phenyl)sulfonyl)-3-(hydroxymethyl)pyrrolidin-3-ol] | 10 to 100
O=S(=O)(c1ccc(Cl)nc1)[C@H]1CN(S(=O)(=O)c2ccc(C(F)(F)F)cc2Cl)C[C@@]1(O)CO [Example 99, (3R,4S)-1-((2-chloro-4-(trifluoromethyl)phenyl)sulfonyl)-4-((6-chloropyridin-3-yl)sulfonyl)-3-(hydroxymethyl)pyrrolidin-3-ol] | 10 to 100
Cc1cc(S(=O)(=O)[C@H]2CN(S(=O)(=O)c3ccc(C(F)(F)F)cc3Cl)C[C@@]2(O)CO)ccc1C#N [Example 100, 4-(((3S,4R)-1-((2-chloro-4-(trifluoromethyl)phenyl)sulfonyl)-4-hydroxy-4-(hydroxymethyl)pyrrolidin-3-yl)sulfonyl)-2-methylbenzonitrile] | 10 to 100
N#Cc1ccc(S(=O)(=O)[C@H]2CN(S(=O)(=O)c3ccc(C(F)(F)F)cc3Cl)C[C@@]2(O)CO)cc1Cl [Example 101, 2-chloro-4-(((3S,4R)-1-((2-chloro-4-(trifluoromethyl)phenyl)sulfonyl)-4-hydroxy-4-(hydroxymethyl)pyrrolidin-3-yl)sulfonyl)benzonitrile] | 10 to 100
O=S(=O)(c1ccc(F)cc1)[C@H]1CN(S(=O)(=O)c2ccc(Cl)cc2Cl)C[C@@]1(O)CO [Example 102, (3R,4S)-1-((2,4-dichlorophenyl)sulfonyl)-4-((4-fluorophenyl)sulfonyl)-3-(hydroxymethyl)pyrrolidin-3-ol] | 10 to 100
N#Cc1cc(S(=O)(=O)[C@H]2CN(S(=O)(=O)c3ccc(Cl)cc3Cl)C[C@@]2(O)CO)ccc1Cl [Example 103, 2-chloro-5-(((3S,4R)-1-((2,4-dichlorophenyl)sulfonyl)-4-hydroxy-4-(hydroxymethyl)pyrrolidin-3-yl)sulfonyl)benzonitrile] | 10 to 100
CCc1ccc(S(=O)(=O)[C@H]2CN(S(=O)(=O)c3ccc(C#N)cc3Cl)C[C@@]2(O)CO)cc1 [Example 104, 3-chloro-4-(((3R,4S)-4-((4-ethylphenyl)sulfonyl)-3-hydroxy-3-(hydroxymethyl)pyrrolidin-1-yl)sulfonyl)benzonitrile] | 10 to 100
CC(C)c1ccc(S(=O)(=O)[C@H]2CN(S(=O)(=O)c3ccc(C#N)cc3Cl)C[C@@]2(O)CO)cc1 [Example 105, 3-chloro-4-(((3R,4S)-3-hydroxy-3-(hydroxymethyl)-4-((4-isopropylphenyl)sulfonyl)pyrrolidin-1-yl)sulfonyl)benzonitrile] | 10 to 100
CCCc1ccc(S(=O)(=O)[C@H]2CN(S(=O)(=O)c3ccc(C#N)cc3Cl)C[C@@]2(O)CO)cc1 [Example 106, 3-chloro-4-(((3R,4S)-3-hydroxy-3-(hydroxymethyl)-4-((4-propylphenyl)sulfonyl)pyrrolidin-1-yl)sulfonyl)benzonitrile] | 10 to 100
N#Cc1ccc(S(=O)(=O)N2C[C@H](S(=O)(=O)c3ccc(Cl)c(F)c3)[C@](O)(CO)C2)c(Cl)c1 [Example 107, 3-chloro-4-(((3R,4S)-4-((4-chloro-3-fluorophenyl)sulfonyl)-3-hydroxy-3-(hydroxymethyl)pyrrolidin-1-yl)sulfonyl)benzonitrile] | 0.1 to 10
O=S(=O)(c1cnc(C(F)(F)F)nc1)[C@H]1CN(S(=O)(=O)c2ccc(Cl)cc2Cl)C[C@@]1(O)CO [Example 108, (3R,4S)-1-((2,4-dichlorophenyl)sulfonyl)-3-(hydroxymethyl)-4-((2-(trifluoromethyl)pyrimidin-5-yl)sulfonyl)pyrrolidin-3-ol] | 10 to 100
N#Cc1ccc(S(=O)(=O)N2C[C@H](S(=O)(=O)c3ccc(Cl)cn3)[C@@](O)(CO)C2)c(Cl)c1 [Example 109, 3-chloro-4-(((3S,4S)-4-((5-chloropyridin-2-yl)sulfonyl)-3-hydroxy-3-(hydroxymethyl)pyrrolidin-1-yl)sulfonyl)benzonitrile] | 10 to 100
N#Cc1ccc(S(=O)(=O)N2C[C@H](S(=O)(=O)c3ccc(C(F)(F)F)cn3)[C@](O)(CO)C2)c(Cl)c1 [Example 110, 3-chloro-4-(((3R,4S)-3-hydroxy-3-(hydroxymethyl)-4-((5-(trifluoromethyl)pyridin-2-yl)sulfonyl)pyrrolidin-1-yl)sulfonyl)benzonitrile] | 10 to 100
N#Cc1ncccc1S(=O)(=O)N1C[C@H](S(=O)(=O)c2ccc(Cl)cc2)[C@](O)(CO)C1 [Example 111, 3-(((3R,4S)-4-((4-chlorophenyl)sulfonyl)-3-hydroxy-3-(hydroxymethyl)pyrrolidin-1-yl)sulfonyl)picolinonitrile] | 10 to 100
N#Cc1ccc(S(=O)(=O)N2C[C@H](S(=O)(=O)c3cnc(C(F)(F)F)nc3)[C@](O)(CO)C2)c(Cl)c1 [Example 112, 3-chloro-4-(((3R,4S)-3-hydroxy-3-(hydroxymethyl)-4-((2-(trifluoromethyl)pyrimidin-5-yl)sulfonyl)pyrrolidin-1-yl)sulfonyl)benzonitrile] | 10 to 100
N#Cc1ccc(S(=O)(=O)N2C[C@H](S(=O)(=O)c3ccc(Br)cn3)[C@](O)(CO)C2)c(Cl)c1 [Example 113, 4-(((3R,4S)-4-((5-bromopyridin-2-yl)sulfonyl)-3-hydroxy-3-(hydroxymethyl)pyrrolidin-1-yl)sulfonyl)-3-chlorobenzonitrile] | 0.1 to 10
O=S(=O)(c1ccc(Cl)c(Cl)c1)[C@H]1CN(S(=O)(=O)c2ccc(Cl)cc2Cl)C[C@@]1(O)CO [Example 114, (3R,4S)-1-((2,4-dichlorophenyl)sulfonyl)-4-((3,4-dichlorophenyl)sulfonyl)-3-(hydroxymethyl)pyrrolidin-3-ol] | 10 to 100
O=S(=O)(c1ccc(Cl)c(Cl)c1)[C@H]1CN(S(=O)(=O)c2ccc(Cl)cc2Cl)C[C@]1(O)CO [Example 115, (3S,4S)-1-((2,4-dichlorophenyl)sulfonyl)-4-((3,4-dichlorophenyl)sulfonyl)-3-(hydroxymethyl)pyrrolidin-3-ol] | 10 to 100
O=S(=O)(c1ccc(C(F)(F)F)cn1)[C@H]1CN(S(=O)(=O)c2ccc(Cl)cc2Cl)C[C@@]1(O)CO [Example 116, (3R,4S)-1-((2,4-dichlorophenyl)sulfonyl)-3-(hydroxymethyl)-4-((5-(trifluoromethyl)pyridin-2-yl)sulfonyl)pyrrolidin-3-ol] | 10 to 100
N#Cc1cc(C(F)(F)F)ccc1S(=O)(=O)N1C[C@H](S(=O)(=O)c2ccc(Cl)cc2)[C@](O)(CO)C1 [Example 117, 2-(((3R,4S)-4-((4-chlorophenyl)sulfonyl)-3-hydroxy-3-(hydroxymethyl)pyrrolidin-1-yl)sulfonyl)-5-(trifluoromethyl)benzonitrile] | 0.1 to 10
O=S(=O)(c1ccc(C(F)(F)F)nc1)[C@H]1CN(S(=O)(=O)c2ccc(Cl)cc2Cl)C[C@@]1(O)CO [Example 118, (3R,4S)-1-((2,4-dichlorophenyl)sulfonyl)-3-(hydroxymethyl)-4-((6-(trifluoromethyl)pyridin-3-yl)sulfonyl)pyrrolidin-3-ol] | 10 to 100
C[C@H](O)[C@]1(O)CN(S(=O)(=O)c2ccc(C#N)cc2Cl)C[C@@H]1S(=O)(=O)c1ccc(Cl)cn1 [Example 119, 3-chloro-4-(((3R,4S)-4-((5-chloropyridin-2-yl)sulfonyl)-3-hydroxy-3-((S)-1-hydroxyethyl)pyrrolidin-1-yl)sulfonyl)benzonitrile] | 0.1 to 10
C[C@@H](O)[C@]1(O)CN(S(=O)(=O)c2ccc(C#N)cc2Cl)C[C@@H]1S(=O)(=O)c1ccc(Cl)cn1 [Example 120, 3-chloro-4-(((3R,4S)-4-((5-chloropyridin-2-yl)sulfonyl)-3-hydroxy-3-((R)-1-hydroxyethyl)pyrrolidin-1-yl)sulfonyl)benzonitrile] | 0.1 to 10
N#Cc1ccc(S(=O)(=O)N2C[C@H](S(=O)(=O)c3ccc(Cl)cn3)[C@](O)(CN)C2)c(Cl)c1 [Example 121, 4-(((3S,4S)-3-(aminomethyl)-4-((5-chloropyridin-2-yl)sulfonyl)-3-hydroxypyrrolidin-1-yl)sulfonyl)-3-chlorobenzonitrile] | 0.1 to 10
CNC[C@]1(O)CN(S(=O)(=O)c2ccc(C#N)cc2Cl)C[C@@H]1S(=O)(=O)c1ccc(Cl)cc1 [Example 124, 3-chloro-4-(((3S,4S)-4-((4-chlorophenyl)sulfonyl)-3-hydroxy-3-((methylamino)methyl)pyrrolidin-1-yl)sulfonyl)benzonitrile] | 0.1 to 10
N#Cc1ccc(S(=O)(=O)N2C[C@H](S(=O)(=O)c3ccc(Cl)cn3)[C@@](O)(CN)C2)c(Cl)c1 [Example 125, 4-(((3R,4S)-3-(aminomethyl)-4-((5-chloropyridin-2-yl)sulfonyl)-3-hydroxypyrrolidin-1-yl)sulfonyl)-3-chlorobenzonitrile] | 0.1 to 10
N#Cc1ccc(S(=O)(=O)N2C[C@H](S(=O)(=O)c3ccc(Cl)cc3)[C@](O)(CN)C2)cc1 [Example 126, 4-(((3S,4S)-3-(aminomethyl)-4-((4-chlorophenyl)sulfonyl)-3-hydroxypyrrolidin-1-yl)sulfonyl)benzonitrile] | 10 to 100
N#Cc1ccc(S(=O)(=O)N2C[C@H](S(=O)(=O)c3ccc(Cl)cc3)[C@@](O)(CN)C2)cc1 [Example 127, 4-(((3R,4S)-3-(aminomethyl)-4-((4-chlorophenyl)sulfonyl)-3-hydroxypyrrolidin-1-yl)sulfonyl)benzonitrile] | 10 to 100
